Read-outs that look alike come from different tables or passages of the source. Where a SMILES comes first, the peptide text is derived from it. [ ]: non-standard residue; d: D form. ξ: configuration not given here. Oic = O=C(O)[C@@H]1C[C@@H]2CCCC[C@@H]2N1; Oic(3aξ,7aξ) = O=C(O)[C@@H]1CC2CCCCC2N1; Tic = O=C(O)[C@@H]1Cc2ccccc2CN1; Orn = NCCC[C@H](N)C(=O)O; Dab = NCC[C@H](N)C(=O)O; Dap = NC[C@H](N)C(=O)O
Legend:
K. pneumoniae BAMC 07-18 [1] = format: cell-based, Klebsiella pneumoniae
From the text: Table 3 In vitro minimum inhibitory concentration (MIC) and minimum bactericide concentration (MBC) activity against K. pneumonia and P. aeruginosa. | column: K. pneumoniae BAMC 07-18 / MBC (μg/mL)/(μM)

P. aeruginosa PAO1 [2] = format: cell-based, Pseudomonas aeruginosa
From the text: Table 3 In vitro minimum inhibitory concentration (MIC) and minimum bactericide concentration (MBC) activity against K. pneumonia and P. aeruginosa. | column: P. aeruginosa PAO1 / MBC (µg/mL)/(μM)

[3] = tested on: LPS isolated from P. aeruginosa or K. pneumoniae; assay: Precipitation of AMP-LPS mixtures prepared for CD; format: physicochemical; conditions: 350 μL stock LPS + 50 μL stock peptide, phosphate buffer; CD spectra could not be obtained
Method: (§1) Peptide solutions were prepared by dissolving approximately 2 mg of AMPs 70, 74, 75, 79, or 80 in 1.0 mL of phosphate buffer. […] For the LPS liposome studies 350 μL of stock LPS solution was mixed with 50 μL of stock peptide solution. CD spectroscopy is a sensitive technique, so it is commonly used to monitor conformational changes in peptides and proteins. […] All CD spectra were obtained by acquiring 8 scans using a 0.1 mm cylindrical quartz cell with a spectral range of 260 to 195 nm (at wavelengths below 195 nm the HTV exceeded 400, and therefore data collection was terminated at 195 nm) and a scanning rate of 20 nm/min. Acquisition parameters were bandwidth 1 nm, data pitch 0.2 nm, response time 2.0 s, and 5 mdeg sensitivity. Spectra were collected at room temperature (298 K). Contributions from LPS were eliminated by subtracting from the corresponding AMP-LPS solutions. All analyses of CD spectra were conducted after smoothing with a means-movement function.

K. pneumoniae BAMC 07-18 [4] = tested on: K. pneumoniae BAMC 07-18
P. aeruginosa PAO1 [5] = conditions: for in vitro inhibitory activity: against P. aeruginosa
[6] = format: physicochemical
Method: as §1

[7] = K. pneumoniae BAMC 07-18, light face value
[8] = P. aeruginosa PAO1, light face value

## CC(C)C[C@H](NC(=O)[C@@H](N)CCN)C(=O)N1Cc2ccccc2C[C@H]1C(=O)N1[C@H](C(=O)N[C@@H](CCN)C(=O)N2Cc3ccccc3C[C@H]2C(=O)N2[C@H](C(=O)N[C@@H](Cc3ccccc3)C(=O)N3Cc4ccccc4C[C@H]3C(=O)N3[C@H](C(=O)N[C@@H](CCN)C(=O)N4Cc5ccccc5C[C@H]4C(=O)N4[C@H](C(=O)N[C@@H](Cc5ccccc5)C(=O)N5Cc6ccccc6C[C@H]5C(=O)N5[C@H](C(=O)N[C@@H](CCN)C(=O)N6Cc7ccccc7C[C@H]6C(=O)N6[C@H](C(=O)N[C@@H](CCN)C(=O)N[C@@H](CCN)C(=O)N[C@@H](CCN)C(=O)N[C@@H](CCN)C(N)=O)C[C@@H]7CCCC[C@@H]76)C[C@@H]6CCCC[C@@H]65)C[C@@H]5CCCC[C@@H]54)C[C@@H]4CCCC[C@@H]43)C[C@@H]3CCCC[C@@H]32)C[C@@H]2CCCC[C@@H]21 [AMP 73] (H-[Dab]L[Tic][Oic][Dab][Tic][Oic]F[Tic][Oic][Dab][Tic][Oic]F[Tic][Oic][Dab][Tic][Oic][Dab][Dab][Dab][Dab]-NH2)
K. pneumoniae BAMC 07-18 [1]; BAMC 07-18
  MBC: 32.4 µM
K. pneumoniae BAMC 07-18 [1]; [7]
  MBC: 100 µg/mL
P. aeruginosa PAO1 [2]; [8]
  MBC: 100 µg/mL
P. aeruginosa PAO1 [2]; PAO1
  MBC: 32.4 µM
[3]
  precipitation in the presence of either LPS: precipitation of uncharacterized AMP-LPS complexes
K. pneumoniae BAMC 07-18 [4]; BAMC 07-18
  MIC: 16.2 µM
K. pneumoniae BAMC 07-18 [4]; [7]
  MIC: 50 µg/mL
P. aeruginosa PAO1 [5]; [8]
  MIC: 50 µg/mL
P. aeruginosa PAO1 [5]; PAO1
  MIC: 16.2 µM

## CC(C)C[C@H](NC(=O)[C@@H](N)CCCN)C(=O)N1Cc2ccccc2C[C@H]1C(=O)N1[C@H](C(=O)N[C@@H](CCCN)C(=O)N2Cc3ccccc3C[C@H]2C(=O)N2[C@H](C(=O)N[C@@H](Cc3ccccc3)C(=O)N3Cc4ccccc4C[C@H]3C(=O)N3[C@H](C(=O)N[C@@H](CCCN)C(=O)N4Cc5ccccc5C[C@H]4C(=O)N4[C@H](C(=O)N[C@@H](Cc5ccccc5)C(=O)N5Cc6ccccc6C[C@H]5C(=O)N5[C@H](C(=O)N[C@@H](CCCN)C(=O)N6Cc7ccccc7C[C@H]6C(=O)N6[C@H](C(=O)N[C@@H](CCCN)C(=O)N[C@@H](CCCN)C(=O)N[C@@H](CCCN)C(=O)N[C@@H](CCCN)C(N)=O)C[C@@H]7CCCC[C@@H]76)C[C@@H]6CCCC[C@@H]65)C[C@@H]5CCCC[C@@H]54)C[C@@H]4CCCC[C@@H]43)C[C@@H]3CCCC[C@@H]32)C[C@@H]2CCCC[C@@H]21 [AMP 71] (H-[Orn]L[Tic][Oic][Orn][Tic][Oic]F[Tic][Oic][Orn][Tic][Oic]F[Tic][Oic][Orn][Tic][Oic][Orn][Orn][Orn][Orn]-NH2)
[3]
  precipitation in the presence of either LPS: precipitation of uncharacterized AMP-LPS complexes
K. pneumoniae BAMC 07-18 [4]; BAMC 07-18
  MIC: 31.2 µM
K. pneumoniae BAMC 07-18 [4]; [7]
  MIC: 100 µg/mL
P. aeruginosa PAO1 [5]; [8]
  MIC: 100 µg/mL
P. aeruginosa PAO1 [5]; PAO1
  MIC: 31.2 µM

## CC(C)C[C@H](NC(=O)[C@@H](N)CCCCN)C(=O)N1Cc2ccccc2C[C@H]1C(=O)N1C2CCCCC2C[C@H]1C(=O)N[C@@H](CCCCN)C(=O)NCC(=O)N1Cc2ccccc2C[C@H]1C(=O)N1C2CCCCC2C[C@H]1C(=O)N[C@@H](Cc1ccccc1)C(=O)N1Cc2ccccc2C[C@H]1C(=O)N1C2CCCCC2C[C@H]1C(=O)N[C@@H](CCCCN)C(=O)NCC(=O)N1Cc2ccccc2C[C@H]1C(=O)N1C2CCCCC2C[C@H]1C(=O)N[C@@H](Cc1ccccc1)C(=O)N1Cc2ccccc2C[C@H]1C(=O)N1C2CCCCC2C[C@H]1C(=O)N[C@@H](CCCCN)C(=O)NCC(=O)N1Cc2ccccc2C[C@H]1C(=O)N1C2CCCCC2C[C@H]1C(=O)N[C@@H](CCCCN)C(=O)N[C@@H](CCCCN)C(=O)N[C@@H](CCCCN)C(=O)N[C@@H](CCCCN)C(N)=O (stereo partly drawn) [AMP 78] (H-KL[Tic][Oic(3aξ,7aξ)]KG[Tic][Oic(3aξ,7aξ)]F[Tic][Oic(3aξ,7aξ)]KG[Tic][Oic(3aξ,7aξ)]F[Tic][Oic(3aξ,7aξ)]KG[Tic][Oic(3aξ,7aξ)]KKKK-NH2)
K. pneumoniae BAMC 07-18 [1]; BAMC 07-18
  MBC: 28.6 µM
K. pneumoniae BAMC 07-18 [1]; [7]
  MBC: 100 µg/mL
P. aeruginosa PAO1 [2]; [8]
  MBC: 50 µg/mL
P. aeruginosa PAO1 [2]; PAO1
  MBC: 14.3 µM
[6]
  solubility in phosphate buffer at approximately 2 mg in 1.0 mL: solubility issues
K. pneumoniae BAMC 07-18 [4]; BAMC 07-18
  MIC: 14.3 µM
K. pneumoniae BAMC 07-18 [4]; [7]
  MIC: 50 µg/mL
K. pneumoniae BAMC 07-18 [4]; against K. pneumoniae
  in vitro inhibitory activity: 50 µg/mL
P. aeruginosa PAO1 [5]; [8]
  MIC: 50 µg/mL
P. aeruginosa PAO1 [5]; PAO1
  MIC: 14.3 µM
P. aeruginosa PAO1 [5]
  in vitro inhibitory activity: 50 µg/mL

## CC(C)C[C@H](NC(=O)[C@@H](N)CN)C(=O)N1Cc2ccccc2C[C@H]1C(=O)N1[C@H](C(=O)N[C@@H](CN)C(=O)N2Cc3ccccc3C[C@H]2C(=O)N2[C@H](C(=O)N[C@@H](Cc3ccccc3)C(=O)N3Cc4ccccc4C[C@H]3C(=O)N3[C@H](C(=O)N[C@@H](CN)C(=O)N4Cc5ccccc5C[C@H]4C(=O)N4[C@H](C(=O)N[C@@H](Cc5ccccc5)C(=O)N5Cc6ccccc6C[C@H]5C(=O)N5[C@H](C(=O)N[C@@H](CN)C(=O)N6Cc7ccccc7C[C@H]6C(=O)N6[C@H](C(=O)N[C@@H](CN)C(=O)N[C@@H](CN)C(=O)N[C@@H](CN)C(=O)N[C@@H](CN)C(N)=O)C[C@@H]7CCCC[C@@H]76)C[C@@H]6CCCC[C@@H]65)C[C@@H]5CCCC[C@@H]54)C[C@@H]4CCCC[C@@H]43)C[C@@H]3CCCC[C@@H]32)C[C@@H]2CCCC[C@@H]21 [AMP 72] (H-[Dap]L[Tic][Oic][Dap][Tic][Oic]F[Tic][Oic][Dap][Tic][Oic]F[Tic][Oic][Dap][Tic][Oic][Dap][Dap][Dap][Dap]-NH2)
K. pneumoniae BAMC 07-18 [1]; BAMC 07-18
  MBC: 33.6 µM
K. pneumoniae BAMC 07-18 [1]; [7]
  MBC: 100 µg/mL
P. aeruginosa PAO1 [2]; [8]
  MBC: 100 µg/mL
P. aeruginosa PAO1 [2]; PAO1
  MBC: 33.6 µM
[3]
  precipitation in the presence of either LPS: precipitation of uncharacterized AMP-LPS complexes
K. pneumoniae BAMC 07-18 [4]; BAMC 07-18
  MIC: 33.6 µM
K. pneumoniae BAMC 07-18 [4]; [7]
  MIC: 100 µg/mL
P. aeruginosa PAO1 [5]; [8]
  MIC: 50 µg/mL
P. aeruginosa PAO1 [5]; PAO1
  MIC: 16.8 µM

## CC(C)C[C@H](NC(=O)[C@@H](N)CCCCN)C(=O)N1Cc2ccccc2C[C@H]1C(=O)N1[C@H](C(=O)N[C@@H](CCCCN)C(=O)N2Cc3ccccc3C[C@H]2C(=O)N2[C@H](C(=O)N[C@@H](Cc3ccccc3)C(=O)NCC(=O)N3Cc4ccccc4C[C@H]3C(=O)N3[C@H](C(=O)N[C@@H](CCCCN)C(=O)N4Cc5ccccc5C[C@H]4C(=O)N4[C@H](C(=O)N[C@@H](Cc5ccccc5)C(=O)NCC(=O)N5Cc6ccccc6C[C@H]5C(=O)N5[C@H](C(=O)N[C@@H](CCCCN)C(=O)N6Cc7ccccc7C[C@H]6C(=O)N6[C@H](C(=O)N[C@@H](CCCCN)C(=O)N[C@@H](CCCCN)C(=O)N[C@@H](CCCCN)C(=O)N[C@@H](CCCCN)C(N)=O)C[C@@H]7CCCC[C@@H]76)C[C@@H]6CCCC[C@@H]65)C[C@@H]5CCCC[C@@H]54)C[C@@H]4CCCC[C@@H]43)C[C@@H]3CCCC[C@@H]32)C[C@@H]2CCCC[C@@H]21 [AMP 77] (H-KL[Tic][Oic]K[Tic][Oic]FG[Tic][Oic]K[Tic][Oic]FG[Tic][Oic]K[Tic][Oic]KKKK-NH2)
K. pneumoniae BAMC 07-18 [1]; BAMC 07-18
  MBC: 29.2 µM
K. pneumoniae BAMC 07-18 [1]; [7]
  MBC: 100 µg/mL
P. aeruginosa PAO1 [2]; [8]
  MBC: 50 µg/mL
P. aeruginosa PAO1 [2]; PAO1
  MBC: 14.6 µM
[6]
  solubility in phosphate buffer at approximately 2 mg in 1.0 mL: solubility issues
K. pneumoniae BAMC 07-18 [4]; BAMC 07-18
  MIC: 14.6 µM
K. pneumoniae BAMC 07-18 [4]; [7]
  MIC: 50 µg/mL
P. aeruginosa PAO1 [5]; [8]
  MIC: 50 µg/mL
P. aeruginosa PAO1 [5]; PAO1
  MIC: 14.6 µM
P. aeruginosa PAO1 [5]
  in vitro inhibitory activity: 50 µg/mL

## CC(C)C[C@H](NC(=O)[C@@H](N)CCCCN)C(=O)N1Cc2ccccc2C[C@H]1C(=O)N1C2CCCCC2C[C@H]1C(=O)NCC(=O)N[C@@H](CCCCN)C(=O)N1Cc2ccccc2C[C@H]1C(=O)N1C2CCCCC2C[C@H]1C(=O)NCC(=O)N[C@@H](Cc1ccccc1)C(=O)N1Cc2ccccc2C[C@H]1C(=O)N1C2CCCCC2C[C@H]1C(=O)NCC(=O)N[C@@H](CCCCN)C(=O)N1Cc2ccccc2C[C@H]1C(=O)N1C2CCCCC2C[C@H]1C(=O)NCC(=O)N[C@@H](Cc1ccccc1)C(=O)N1Cc2ccccc2C[C@H]1C(=O)N1C2CCCCC2C[C@H]1C(=O)NCC(=O)N[C@@H](CCCCN)C(=O)N1Cc2ccccc2C[C@H]1C(=O)N1C2CCCCC2C[C@H]1C(=O)N[C@@H](CCCCN)C(=O)N[C@@H](CCCCN)C(=O)N[C@@H](CCCCN)C(=O)N[C@@H](CCCCN)C(N)=O (stereo partly drawn) [AMP 76] (H-KL[Tic][Oic(3aξ,7aξ)]GK[Tic][Oic(3aξ,7aξ)]GF[Tic][Oic(3aξ,7aξ)]GK[Tic][Oic(3aξ,7aξ)]GF[Tic][Oic(3aξ,7aξ)]GK[Tic][Oic(3aξ,7aξ)]KKKK-NH2)
K. pneumoniae BAMC 07-18 [1]; BAMC 07-18
  MBC: 13.9 µM
K. pneumoniae BAMC 07-18 [1]; [7]
  MBC: 50 µg/mL
P. aeruginosa PAO1 [2]; [8]
  MBC: 50 µg/mL
P. aeruginosa PAO1 [2]; PAO1
  MBC: 13.9 µM
[6]
  solubility in phosphate buffer at approximately 2 mg in 1.0 mL: solubility issues
K. pneumoniae BAMC 07-18 [4]; BAMC 07-18
  MIC: 13.9 µM
K. pneumoniae BAMC 07-18 [4]; [7]
  MIC: 50 µg/mL
P. aeruginosa PAO1 [5]; [8]
  MIC: 50 µg/mL
P. aeruginosa PAO1 [5]; PAO1
  MIC: 13.9 µM
P. aeruginosa PAO1 [5]
  in vitro inhibitory activity: 50 µg/mL

Reference: paper PMC4295349, “Synthetic Antimicrobial Peptides Exhibit Two Different Binding Mechanisms to the Lipopolysaccharides Isolated from Pseudomonas aeruginosa and Klebsiella pneumoniae” (International Journal of Medicinal Chemistry, 2014)
